In US7122666B2, “Heteroaryl-substituted pyrrole derivatives, their preparation and their therapeutic uses” (Sankyo Company, Limited, priority 1999, dated 2006):
pIC50: −log10 of the molar value.

Tests used:
TNFα production = assay: Inhibition of the production of TNFα in vivo (Test Examples 2 and 2′); details: Table 9′; Balb/c mice, oral administration 30 minutes before intravenous lipopolysaccharide, plasma TNFα 1 hour after LPS
Method: This test was performed according to the method of Ochalski, et al. [S. J. Ochalski, D. A. Hartman, M. T. Belfast, T. L. Walter, K. B. Glaser and R. P. Carlson; Inhibition of endotoxin-induced hypothermia and serum TNF-α levels in CD-1 mice by various pharmacological agents: Agents Actions 39, C52–C54 (1993)].
The production of TNFα was induced in mice by the intravenous injection of lipopolysaccharide (E. coli O26: B6 origin, Difco) which was prepared to a concentration of 0.045 mg/ml using physiological saline. The saline preparation of lipopolysaccharide was administered at the rate of 10 ml/l kg of body weight into the caudal vein of Balb/c mice (males, age 5–7 weeks, body weight: approx. 22 g, Japan Charles River) which had been fasted overnight starting on the day before the experiment. One hour after administration, the mice were laparotomized under ether anaesthesia and blood was collected from the abdominal vena cava. Blood collection was performed using a 1 ml volume disposable syringe equipped with a 23G needle which had been moistened with heparin on the inside wall. Following blood collection, the blood was immediately transferred to a 1.5 ml volume Eppendorf tube and centrifuged at 4° C. and 14,000 rpm to separate the plasma. This plasma was then stored at −20° C. until measurement of TNFα. The measurement of the amount of TNFα was performed with a commercially available enzyme immunoassay (ELISA) kit (Mouse TNFα ELISA KIT, Genzyme).
To determine the inhibitory activity of the test compounds, each test compound was suspended in a 0.5% tragacanth solution and then administered orally to the Balb/c mice at the rate of 10 ml/1 kg of body weight 30 minutes before injection of lipopolysaccharide. The level of TNFα production was then determined as described above. In the control group, 0.5% tragacanth solution was administered at the rate of 10 ml/1 kg of body weight to the test mice instead of the solutions of the test compounds. A minimum of 3 dose levels of the test compound was administered to groups of 5 test mice for each test compound. The inhibitory rate relative to the control group was calculated for each dose level. From the inhibitory rates and the dosages, ID50 values were calculated by the least squares method.
The production of TNFα was induced in mice by the intravenous injection of lipopolysaccharide (E. coli O26: B6 origin, Difco) which was prepared to a concentration of 0.045 mg/ml using physiological saline. […]
To determine the inhibitory activity of the test compounds, each test compound was suspended in a 0.5% tragacanth solution and then administered orally to the Balb/c mice at the rate of 10 ml/1 kg of body weight 30 minutes before injection of lipopolysaccharide. The level of TNFα production was then determined as described above. […]

[1] = test system: IL-1β production in human whole blood; assay: Inhibition of the production of IL-1β in vitro in human whole blood (Test Examples 1 and 1′); format: cell-based; details: Table 8′, lipopolysaccharide 10 μg/ml, 6 hours at 37° C., plasma IL-1β by ELISA, least squares, read-out: Inhibitory Effect on IL-1β Production (in vitro) IC50
Summary of the method: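 Heparinized whole blood from healthy adult volunteers was pre-mixed with compound in DMSO and stimulated with E. coli O26:B6 LPS (10 μg/ml final) for 6 h at 37° C, 5% CO2. Plasma IL-1β and TNFα were measured by ELISA, and IC50 (μM) was fitted by least squares from cytokine levels with and without compound.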

`CC1C[C@H]2C=C(c3c[nH]c(-c4ccc(F)cc4)c3-c3ccncc3)CCN2C1` (stereo partly drawn) [Example 16′, 2-(4-Fluorophenyl)-4-[(8aS)-2-methyl-1,2,3,5,6,8a-hexahydroindolizin-7-yl]-3-(pyridin-4-yl)1H-pyrrole] was tested, and the “Inhibitory Effect on TNFα Production (in vivo) IC50” value (TNFα production) was 0.71 mg/kg and the pIC50 [1] was 8.77.
